Laboratory results as given in US9351992B2, “Non-anticoagulant polysaccharide compositions” (MOMENTA PHARMACEUTICALS, INC., priority 2007, dated 2016).
Marks after values point to notes of the source that are not given here.

Test system: C170HM2 human colorectal tumor cells
Assay: Colon cancer metastasis to the liver (orthotopic liver metastasis model)
Format: in vivo, MF1 nude (nu/nu) athymic mice
Protocol: Liver metastasis was initiated by intraperitoneal injection of C170HM2 human colorectal tumor cells into male MF1 nude (nu/nu) athymic mice. 5FU/leucovorin was used as a positive control.
C170HM2 cells were maintained in vitro in RPMI culture medium (Sigma) containing 10% (v/v) heat inactivated fetal bovine serum and 2 mM L-glutamine at 37° C. in 5% CO2 and humidified conditions. Cells from sub-confluent monolayers were harvested with 0.025% EDTA, washed in culture medium and re-suspended in sterile phosphate buffered saline, pH 7.4 (PBS) for in vivo administration. 1.5×10^6 cells in a volume of 1 ml were injected intraperitoneally into 65 mice, and the mice were allocated into treatment groups as below.
Treatment was initiated on day 1 following cell injection and continued until day 35 or until the clinical condition of the animal required termination. One mouse in group 6 was terminated on day 20 due to black tail, bruising, and very pale appearance. Groups and 6 missed one dose on day 5. No adverse affects of the test compounds in mice bearing the tumors were observed.
The study was terminated on day 35, and the tumors in the liver were excised and weighed.

[1] = 25 mg/kg i.v. days 1, 3, 5, 7, calculated in comparison to group 7 (untreated), not group 1
[2] = 25 mg/kg i.v., compared to the untreated control group (group 7)

In the case of 5FU/leucovorin [5 FU/Leu], the “Mean tumor weight” value (25 mg/kg i.v. cycled on days 1, 3, 5, 7, liver tumors day 35) is reported as 0.037 g, the “Mean tumor area (% of vehicle)” value [1] is reported as 15.7 % of vehicle and the “Mean tumor weight (% of vehicle)” value [1] is reported as 11.94* % of vehicle. For the same substance, the “Mean tumor area (mm^2)” value (25 mg/kg i.v. days 1, 3, 5, 7, cross-sectional area, day 35) was 13.12 mm^2, the “decrease in tumor cross-sectional area” value [2] was 84% and the “decrease of tumor weight in the liver” value [2] was “approximately 88%”. For the same substance, the “decrease in tumor size” value (25 mg/kg i.v., compared to the vehicle control group (group 1), not significant) was 62%.
